Measured values: US20070112068A1, “Nitrile compound and its use in pest control” (priority 2003, published 2007)

What was measured:
Type in all cases: in vivo
Blattalla germanica = test: Experimental Example 3: treated filter paper with sucrose bait, German cockroach; conditions: 500 ppm, 0.7 ml on filter paper; two male imagoes; after 6 days
Method: A filter paper having a diameter of 5.5 cm was spread on the bottom of a polyethylene cup having a diameter of 5.5 cm and 0.7 ml of the experimental pesticidal solution was added dropwise onto the filter paper. As a bait 30 mg of sucrose was uniformly placed on the filter paper. Into the polyethylene cup, two male Blattalla germanica imagoes were released and the cup was sealed with a lid. After 6 days, the number of surviving Blattalla germanica was examined and the death rate of the pest was calculated.

Blattella germanica [1] = test: Experimental Example 14: topical application, Blattella germanica; conditions: 1 μl of 1% (w/v) acetone solution onto sternum of thorax of female imagoes; after 7 days
Method: 1% (w/v) solutions of the present compounds (4), (20), (22), (23), (24), (29), (30), (31), (35), (36), (37), (38), (46), (53), (54), (56), (57), (59), (61), (66), (67), (68), (69), (70), (71), (79), (81), (83), (84), (89), and (90) in acetone were prepared. Onto the sternum of the thorax of female imagoes of Blattella germanica, 1 μl of the acetone solution was added dropwise. The imagoes were transferred to a plastic cup having a diameter of about 9 cm and a height of about 4.5 cm and left together with feed and water at 25° C. After 7 days, the number of surviving Blattella germanica was examined and the death rate of the pest was calculated. 10 imagoes of Blattella germanica were put in a cup and three replicate experiments were performed.

Blattella germanica [2] = test: Experimental Example 15: treated filter paper in paper box, Blattella germanica; conditions: 0.1 ml of 2.5% (w/v) acetone solution on filter paper in paper box; after 7 days
Method: (§1) 2.5% (w/v) solutions of the present compounds (23), (24) and (31) in acetone were prepared. 0.1 ml of the solution was added dropwise onto a filter paper with 2 cm×2 cm and then air-dried. This filter paper was attached to the center of the inside bottom of a paper box having 10 cm (width)×2 cm (height)×7 cm (depth) with a two-sided tape. One hole of 5 mm in width and 2 cm in height was made through one side of this box. This box was placed in a plastic vat with 25 cm×20 cm×8 cm in height and therein 10 females and 10 males of Blattella germanica were released. The inside wall of the plastic vat used in this experiment was coated with talc for preventing the escape of cockroaches. The plastic vat contained feed and water and left at 25° C. After 7 days, Blattella germanica was observed and the death rate of the pest was calculated. This experiment was repeated two times.

Periplaneta fuliginosa = test: Experimental Example 16: treated filter paper in paper box, Periplaneta fuliginosa; conditions: 0.1 ml of 5% (w/v) acetone solution on filter paper in paper box; after 7 days
Method: as §1, with “5% (w/v)” for “2.5% (w/v)”, “of 2” for “of 5”, “therein 3” for “therein 10”, “and 3” for “and 10”, “of Periplaneta fuliginosa” for “of Blattella germanica”, “days, Periplaneta fuliginosa” for “days, Blattella germanica”

N#CC(C#N)(CCCCCl)CCC(F)(F)F [(3)]
death rate of the pest (Blattalla germanica): 100%

N#CC(C#N)(CCC(F)(F)F)CC1CC1(Cl)Cl (stereo not shown) [(4)]
death rate of the pest (Blattalla germanica): 100%
death rate of the pest (Blattella germanica [1]): 100%

N#CC(C#N)(CCC(F)(F)F)CCC(F)(F)F [(5)]
death rate of the pest (Blattalla germanica): 100%

CCCCCC(C#N)(C#N)CCC(F)(F)F [(9)]
death rate of the pest (Blattalla germanica): 100%

CCCCCCC(C#N)(C#N)CCC(F)(F)F [(10)]
death rate of the pest (Blattalla germanica): 100%

N#CC(C#N)(CCC(F)=C(F)F)CCC(F)(F)F [(17)]
death rate of the pest (Blattalla germanica): 100%

N#CC(C#N)(CCC(F)(F)F)CC(F)(F)C(F)F [(20)]
death rate of the pest (Blattalla germanica): 100%
death rate of the pest (Blattella germanica [1]): 100%

N#CC(C#N)(CCC(F)(F)F)CC(F)(F)F [(21)]
death rate of the pest (Blattalla germanica): 100%

N#CC(C#N)(CCC(F)(F)F)CC(F)(F)C(F)(F)F [(22)]
death rate of the pest (Blattalla germanica): 100%
death rate of the pest (Blattella germanica [1]): 100%

N#CC(C#N)(CCC(F)(F)F)CC(F)(F)C(F)C(F)(F)F (stereo not shown) [(23)]
death rate of the pest (Blattalla germanica): 100%
death rate of the pest (Blattella germanica [1]): 100%
death rate of the pest (Blattella germanica [2]): 97.5%
death rate of the pest (Periplaneta fuliginosa): 91.7%

N#CC(C#N)(CCC(F)(F)F)CC(F)(F)C(F)(F)C(F)(F)F [(24)]
death rate of the pest (Blattalla germanica): 100%
death rate of the pest (Blattella germanica [1]): 100%
death rate of the pest (Blattella germanica [2]): 100%
death rate of the pest (Periplaneta fuliginosa): 100%

N#CC(C#N)(CCF)CCC(F)(F)F [(25)]
death rate of the pest (Blattalla germanica): 100%

C#CCC(C#N)(C#N)CCC(F)(F)F [(27)]
death rate of the pest (Blattalla germanica): 100%

N#CC(C#N)(CCC(F)(F)F)CCC(F)(F)C(F)(F)F [(29)]
death rate of the pest (Blattalla germanica): 100%
death rate of the pest (Blattella germanica [1]): 100%

N#CC(C#N)(CCC(F)(F)F)CCC(F)(Cl)C(F)(F)Br (stereo not shown) [(30)]
death rate of the pest (Blattalla germanica): 100%
death rate of the pest (Blattella germanica [1]): 100%

N#CC(C#N)(CCC(F)(F)F)CC(F)(F)C(F)(F)C(F)(F)C(F)(F)C(F)(F)C(F)F [(32)]
death rate of the pest (Blattalla germanica): 100%

N#CC(C#N)(CCC(F)(F)F)CCC(F)(F)C(F)(F)Br [(35)]
death rate of the pest (Blattalla germanica): 100%
death rate of the pest (Blattella germanica [1]): 100%

N#CC(C#N)(CCC(F)(F)F)CCC(F)(C(F)(F)F)C(F)(F)F [(36)]
death rate of the pest (Blattalla germanica): 100%
death rate of the pest (Blattella germanica [1]): 100%

N#CC(C#N)(CCC(F)(F)F)CCC(F)(F)C(F)(F)C(F)(F)F [(37)]
death rate of the pest (Blattalla germanica): 100%
death rate of the pest (Blattella germanica [1]): 100%

N#CC(C#N)(CCC(F)(F)F)CCC(F)(F)C(F)(F)C(F)(F)C(F)(F)F [(38)]
death rate of the pest (Blattalla germanica): 100%
death rate of the pest (Blattella germanica [1]): 100%

N#CC(C#N)(CCC(F)(Cl)C(F)(F)Br)CC(F)(F)C(F)C(F)(F)F (stereo not shown) [(46)]
death rate of the pest (Blattalla germanica): 100%
death rate of the pest (Blattella germanica [1]): 100%

C=CCC(C#N)(C#N)CC(F)(F)C(F)(F)C(F)(F)C(F)F [(47)]
death rate of the pest (Blattalla germanica): 100%

N#CC(C#N)(CCCC(F)(F)F)CCC(F)(F)F [(48)]
death rate of the pest (Blattalla germanica): 100%

N#CC(C#N)(CC(F)(F)C(F)F)CC(F)(F)C(F)F [(50)]
death rate of the pest (Blattalla germanica): 100%

N#CC(C#N)(CBr)CCC(F)(F)F [(52)]
death rate of the pest (Blattalla germanica): 100%

N#CC(C#N)(CCC(F)(F)F)CCC(F)(Cl)C(F)(F)Cl (stereo not shown) [(54)]
death rate of the pest (Blattalla germanica): 100%
death rate of the pest (Blattella germanica [1]): 100%

N#CC(C#N)(CCCCCF)CCC(F)(F)F [(55)]
death rate of the pest (Blattalla germanica): 100%

N#CC(C#N)(CCC(F)(C(F)(F)F)C(F)(F)F)CCC(F)(C(F)(F)F)C(F)(F)F [(56)]
death rate of the pest (Blattalla germanica): 100%
death rate of the pest (Blattella germanica [1]): 100%

N#CC(C#N)(CC(Br)C(F)(F)F)CC(F)(F)C(F)(F)C(F)(F)C(F)F (stereo not shown) [(57)]
death rate of the pest (Blattella germanica [1]): 100%

N#CC(C#N)(CCC(F)(F)F)CC(Cl)C(F)(F)F (stereo not shown) [(58)]
death rate of the pest (Blattalla germanica): 100%

CC(F)(F)CCC(C#N)(C#N)CC(F)(F)C(F)(F)C(F)(F)C(F)F [(59)]
death rate of the pest (Blattalla germanica): 100%
death rate of the pest (Blattella germanica [1]): 100%

N#CC(C#N)(CCCCC(F)F)CCC(F)(F)F [(60)]
death rate of the pest (Blattalla germanica): 100%

N#CC(C#N)(CC(F)(F)C(F)F)CC(F)(F)C(F)(F)C(F)(F)C(F)F [(61)]
death rate of the pest (Blattalla germanica): 100%
death rate of the pest (Blattella germanica [1]): 100%

CC(F)(F)CCC(C#N)(C#N)CCC(F)(F)F [(64)]
death rate of the pest (Blattalla germanica): 100%

N#CC(C#N)(CCCC(F)(F)F)CC(F)(F)C(F)(F)C(F)(F)C(F)F [(66)]
death rate of the pest (Blattalla germanica): 100%
death rate of the pest (Blattella germanica [1]): 100%

N#CC(C#N)(CCC(F)(Cl)C(F)(F)Cl)CC(F)(F)C(F)(F)C(F)(F)C(F)F (stereo not shown) [(67)]
death rate of the pest (Blattalla germanica): 100%
death rate of the pest (Blattella germanica [1]): 100%

N#CC(C#N)(CCC(F)(F)C(F)(F)F)CC(F)(F)C(F)(F)C(F)(F)C(F)F [(68)]
death rate of the pest (Blattalla germanica): 100%
death rate of the pest (Blattella germanica [1]): 100%

N#CC(C#N)(CC(Cl)C(F)(F)F)CC(F)(F)C(F)(F)C(F)(F)C(F)F (stereo not shown) [(69)]
death rate of the pest (Blattalla germanica): 100%
death rate of the pest (Blattella germanica [1]): 100%

CCC(F)(F)CCC(C#N)(C#N)CCC(F)(F)F [(70)]
death rate of the pest (Blattella germanica [1]): 100%

N#CC(C#N)(CCC(F)(F)C(F)(F)C(F)(F)F)CC(F)(F)C(F)(F)C(F)(F)C(F)F [(71)]
death rate of the pest (Blattalla germanica): 100%
death rate of the pest (Blattella germanica [1]): 100%

N#CC(C#N)(CC1CC1)CC(F)(F)C(F)(F)C(F)(F)C(F)F [(72)]
death rate of the pest (Blattalla germanica): 100%

C=CCCC(C#N)(C#N)CC(F)(F)C(F)(F)C(F)(F)C(F)F [(73)]
death rate of the pest (Blattalla germanica): 100%

N#CC(C#N)(CCCF)CC(F)(F)C(F)(F)C(F)(F)C(F)F [(74)]
death rate of the pest (Blattalla germanica): 100%

N#CC(C#N)(CCC(F)=C(F)F)CC(F)(F)C(F)(F)C(F)(F)C(F)F [(75)]
death rate of the pest (Blattalla germanica): 100%

CC(C)=CCC(C#N)(C#N)CC(F)(F)C(F)(F)C(F)(F)C(F)F [(78)]
death rate of the pest (Blattalla germanica): 100%

N#CC(C#N)(CC(F)(F)C(F)(F)C(F)(F)F)CC(F)(F)C(F)(F)C(F)(F)C(F)F [(79)]
death rate of the pest (Blattalla germanica): 100%
death rate of the pest (Blattella germanica [1]): 100%

CCCCC(C#N)(C#N)CC(F)(F)C(F)(F)C(F)(F)C(F)F [(80)]
death rate of the pest (Blattalla germanica): 100%

N#CC(C#N)(CC(F)(F)C(F)C(F)(F)F)CC(F)(F)C(F)(F)C(F)(F)C(F)F (stereo not shown) [(81)]
death rate of the pest (Blattalla germanica): 100%
death rate of the pest (Blattella germanica [1]): 100%

CCCC(C#N)(C#N)CC(F)(F)C(F)(F)C(F)(F)C(F)F [(82)]
death rate of the pest (Blattalla germanica): 100%

N#CC(C#N)(CCC(F)(F)F)CC1CCC(F)(F)CC1 [(83)]
death rate of the pest (Blattalla germanica): 100%
death rate of the pest (Blattella germanica [1]): 100%

N#CC(C#N)(CCC1CCC(F)(F)C1)CCC(F)(F)F (stereo not shown) [(84)]
death rate of the pest (Blattella germanica [1]): 100%

N#CC(C#N)(CCC(F)(F)F)C[C@H]1CCC[C@@H](C(F)F)C1 [(87)]
death rate of the pest (Blattalla germanica): 100%

N#CC(C#N)(CCC(F)(F)F)C[C@H]1CCC[C@@H](CF)C1 [(88)]
death rate of the pest (Blattalla germanica): 100%

N#CC(C#N)(CCCC(F)(F)C(F)(F)F)CCC(F)(F)F [(89)]
death rate of the pest (Blattalla germanica): 100%
death rate of the pest (Blattella germanica [1]): 100%

CC(F)(F)CCCC(C#N)(C#N)CCC(F)(F)F [(90)]
death rate of the pest (Blattella germanica [1]): 100%

N#CC(C#N)(CC(F)(F)C(F)(F)F)CC(F)(F)C(F)(F)F [(93)]
death rate of the pest (Blattalla germanica): 100%
